The nature of data set [1]: Solubility versus pH profile.
Another data set concerns the target T1, rAMY3R (Rattus norvegicus, UniProt P32214+Q9JJ73).
T1 sequence (P32214 25-479 isoform P32214-2 limits assumed): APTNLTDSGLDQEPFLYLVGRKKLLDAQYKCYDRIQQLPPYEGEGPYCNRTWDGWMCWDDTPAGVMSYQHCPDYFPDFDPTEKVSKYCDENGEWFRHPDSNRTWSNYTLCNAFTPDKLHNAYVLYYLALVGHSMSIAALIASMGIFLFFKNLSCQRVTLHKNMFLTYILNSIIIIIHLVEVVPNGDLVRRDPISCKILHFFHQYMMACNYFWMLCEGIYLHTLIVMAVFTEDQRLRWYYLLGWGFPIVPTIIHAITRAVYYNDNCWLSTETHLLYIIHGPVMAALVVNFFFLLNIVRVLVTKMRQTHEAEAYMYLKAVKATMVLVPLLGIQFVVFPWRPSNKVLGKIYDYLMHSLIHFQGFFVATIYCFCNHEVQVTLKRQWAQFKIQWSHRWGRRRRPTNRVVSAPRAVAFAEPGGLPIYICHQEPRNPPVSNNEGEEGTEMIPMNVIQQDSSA
T1 sequence (Q9JJ73 23-147 partner): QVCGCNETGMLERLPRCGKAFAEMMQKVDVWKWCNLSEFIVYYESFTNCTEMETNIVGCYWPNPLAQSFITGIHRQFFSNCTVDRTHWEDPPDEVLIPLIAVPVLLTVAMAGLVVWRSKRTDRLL
Nature of the data set: scintillation proximity binding assay, rAMY3R membranes. More on the design: expressed in transfected cells; host or cells: BHK tk-ts 13, transient co-transfection (FuGENE 6). The note with it: for rAMY3R pIC50: SPA binding assay, Tables S13 and S15; for ratio rCTR/rAMY3R: ratio of binding IC50 values. Here is the method:
The apparent binding affinities were determined using a scintillation proximity assay with beads from PerkinElmer and cell membranes containing the AMY3R or CTRs. […] Membranes were harvested and membranes were prepared and kept at −80 °C until use. The assay was performed in a 384-well Optiplate (PerkinElmer). Membranes were mixed with scintillation proximity assay beads in a 1:1 ratio. […] Samples were analyzed on a TopCounter (Packard). The IC50 values were calculated using GraphPad Prism. See Supporting Information S7: SAR Screening Assay Methods (Binding Assays (Human and Rat)) for more information.
Binding Assays (Human and Rat). Brief descriptions of the methods used to determine binding affinities for SAR analysis are described below. Curves and IC50 values were plotted and calculated in GraphPad Prism using nonlinear regression (one site binding competition analysis), with pIC50 values […]
values were used to calculate the binding affinity ratios in order to express the selectivity of compounds for the AMY3R versus the CTR.
CTR Binding Assay. The binding assay was performed using scintillation proximity assay (SPA) beads (RPNQ0001) from PerkinElmer and cell membranes containing either the hCTR or rCTR. BHK […]
Membranes were prepared in the following way: the cells were rinsed with PBS and incubated with Versene for approximately 5 min before harvesting. The cells were flushed with PBS and the cell-suspension was centrifuged for 5 min at 1000 rpm. Cells were homogenized (Ultra Turrax) in a buffer […]
containing 20 mM Na-HEPES and 0.1 mM EDTA (pH 7.4, buffer 2). The resulting pellet was re-suspended in buffer 2 and protein concentration was measured (BCA protein assay, Pierce). The homogenate was kept cold during the whole procedure. The membranes were stored at –80 °C until […]
The binding assay was performed in a 384-well Optiplate (PerkinElmer) in a total volume of 40 μL.
Membranes were mixed with SPA beads in a 1:1 ratio. […]
mg/well. Test compounds were dissolved in DMSO and further diluted in assay buffer (50 mM HEPES, pH 7.4, 1 mM CaCl2, 5 mM MgCl2, 0.1% ovalbumin, and 0.02% Tween-20).
Calcitonin (NEX422 PerkinElmer) was dissolved in assay buffer and added to the Optiplate at a final […]
prior to centrifugation (1500 rpm, 10 min). Samples were analyzed on TopCounter (Packard).
AMY3R Binding Assay. The binding assay was performed using SPA beads (RPNQ0001) from PerkinElmer and cell membranes containing either the hAMY3R or rAMY3R. BHK tk-ts 13 cells were […]
and cultured as described above. Membranes were prepared in the following way: the cells were rinsed with PBS and incubated with Versene for approximately 5 min before harvesting. The cells were flushed with PBS and the cell-suspension was centrifuged for 5 min at 1000 rpm. Cells were homogenized (Ultra Turrax) in a buffer containing 20 mM Na-HEPES and 10 mM EDTA (pH 7.4), and […]
The resulting pellet was re-suspended, homogenized, and
7.4, buffer 2). The resulting pellet was re-suspended in buffer 2 and protein concentration was measured (BCA protein assay, Pierce). The homogenate was kept cold during the whole procedure.
The membranes were stored at –80 °C until use.
Membranes were mixed with SPA beads in a 1:1 ratio. The final concentration of SPA beads was 0.05 mg/well. Test compounds were dissolved in DMSO and further diluted in assay buffer (50 mM […]
rAMY (NEX448 PerkinElmer) was dissolved in assay buffer and added to the Optiplate at a final

For the next data set, the target named is T2, hAMY3R (Homo sapiens, UniProt O60896+P30988).
T2 sequence (P30988 25-474): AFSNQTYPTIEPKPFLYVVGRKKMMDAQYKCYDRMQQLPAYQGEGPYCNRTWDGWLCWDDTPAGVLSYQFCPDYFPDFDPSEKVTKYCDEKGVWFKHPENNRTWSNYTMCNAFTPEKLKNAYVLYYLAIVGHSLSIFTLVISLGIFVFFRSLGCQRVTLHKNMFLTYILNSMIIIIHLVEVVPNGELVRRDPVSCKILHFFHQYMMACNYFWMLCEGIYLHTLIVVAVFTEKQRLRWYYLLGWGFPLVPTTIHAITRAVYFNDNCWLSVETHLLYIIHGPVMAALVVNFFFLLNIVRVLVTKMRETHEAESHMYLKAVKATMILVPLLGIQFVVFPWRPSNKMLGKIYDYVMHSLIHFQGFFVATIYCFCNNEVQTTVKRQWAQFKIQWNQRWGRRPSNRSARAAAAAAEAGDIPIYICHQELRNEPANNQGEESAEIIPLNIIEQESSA
T2 sequence (O60896 24-148 partner): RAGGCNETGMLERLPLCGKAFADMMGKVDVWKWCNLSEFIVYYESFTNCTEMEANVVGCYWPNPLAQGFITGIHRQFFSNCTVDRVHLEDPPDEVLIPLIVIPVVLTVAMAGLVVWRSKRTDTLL
Nature of the data set: cAMP-responsive element luciferase reporter assay, human AMY3R. The data set is classed as cell-based. More on the design: expressed in transfected cells. The following applies: for ratio hCTR/hAMY3R: ratio of luciferase EC50 values.

Where [2] appears, read: bis-tris-propane buffer, pH 6, aqueous buffer.
[3] abbreviates: bis-tris-propane buffer, pH 6.5, aqueous buffer.
Setting [4] is: bis-tris-propane buffer, pH 7, aqueous buffer.
Where [5] appears, read: bis-tris-propane buffer, pH 7.5, aqueous buffer.
The mark [6] stands for this setting: bis-tris-propane buffer, pH 8, aqueous buffer.
The mark [7] stands for this setting: lactate buffer, pH 4, aqueous buffer.
[8] abbreviates: lactate buffer, pH 5, aqueous buffer.

Each structure is given as a SMILES string. In brackets after ≈: the same amount, converted by molar mass. Read-outs that look alike come from different tables or passages of the source. Numbered stars: 1 amine (or outer) side, 2 acyl side, 3 side chain; on linkers, the order of the positions; unused ones are H or OH. Bridge positions count the residues as written; N and C are the ends. Side chains are listed from the residue outwards. Peptide text beside a SMILES is read from it. * marks the point of attachment. C20 diacid = O=C(O)CCCCCCCCCCCCCCCCCCC(=O)*; γGlu = O=C(O)[C@H](CCC(=O)[*:2])N[*:1]

On to `CC(C)C[C@H](NC(=O)[C@H](CCCNC(=N)N)NC(=O)[C@H](CCC(N)=O)NC(=O)[C@@H](NC(=O)[C@H](C)NC(=O)[C@@H]1CSSC[C@H](NC(=O)[C@@H](N)CCCCNC(=O)CC[C@H](NC(=O)CC[C@H](NC(=O)CCCCCCCCCCCCCCCCCCC(=O)O)C(=O)O)C(=O)O)C(=O)N[C@@H](CC(N)=O)C(=O)N[C@@H]([C@@H](C)O)C(=O)N[C@@H](C)C(=O)N[C@@H]([C@@H](C)O)C(=O)N1)[C@@H](C)O)C(=O)N[C@@H](C)C(=O)N[C@@H](CC(=O)O)C(=O)N[C@@H](Cc1ccccc1)C(=O)N[C@@H](CC(C)C)C(=O)N[C@@H](CCCNC(=N)N)C(=O)N[C@@H](Cc1c[nH]cn1)C(=O)N[C@@H](CO)C(=O)N[C@@H](CO)C(=O)N[C@@H](CC(N)=O)C(=O)N1CCC[C@H]1C(=O)N[C@@H](Cc1ccccc1)C(=O)NCC(=O)N[C@@H](C)C(=O)N1CCC[C@H]1C(=O)N[C@@H](CC(C)C)C(=O)N[C@@H](CO)C(=O)N[C@@H](CO)C(=O)N[C@H](C(=O)N[C@@H](CC(N)=O)C(=O)N[C@H](C(=O)NCC(=O)N[C@@H](CO)C(=O)N[C@@H](CC(=O)O)C(=O)N[C@H](C(=O)N[C@@H](Cc1ccc(O)cc1)C(N)=O)[C@@H](C)O)C(C)C)[C@@H](C)O` [Peptide 7] (H-K([γGlu-γGlu-C20 diacid])CNTATCATQRLADFLRHSSNPFGAPLSSTNVGSDTY-NH2; disulfide 2-7), for which the solubility (kinetic) in data set [1] (setting [2]) was 189 µM (≈ 853 µg/mL); in data set [1] (setting [3]), not below 200 µM; in data set [1] (setting [4]) it was 195 µM (≈ 880 µg/mL); in data set [1] (setting [5]), not below 200 µM; in data set [1] (setting [6]), not below 200 µM; in data set [1] (setting [7]), 96 µM (≈ 433 µg/mL). The same compound gave a kinetic solubility in data set [1] (setting [8]) of 141 µM (≈ 636 µg/mL). The “rAMY3R pIC50” value on rAMY3R came to 9.00. Besides, the “ratio rCTR/rAMY3R” value at rAMY3R was determined as 7.5. Also, at hAMY3R, the “ratio hCTR/hAMY3R” value worked out at 6.9.
Take `CC[C@H](C)[C@H](NC(=O)[C@H](C)NC(=O)CNC(=O)[C@H](Cc1ccccc1)NC(=O)[C@H](CC(N)=O)NC(=O)[C@@H]1CCCN1C(=O)[C@H](CO)NC(=O)[C@H](CO)NC(=O)[C@H](Cc1c[nH]cn1)NC(=O)[C@H](CCCNC(=N)N)NC(=O)[C@H](CC(C)C)NC(=O)[C@H](Cc1ccccc1)NC(=O)[C@H](CC(N)=O)NC(=O)[C@H](C)NC(=O)[C@H](CC(C)C)NC(=O)[C@H](CCCNC(=N)N)NC(=O)[C@H](CCC(N)=O)NC(=O)[C@@H](NC(=O)[C@H](C)NC(=O)[C@@H]1CSSC[C@H](NC(=O)[C@H](CCCNC(=N)N)NC(=O)CNC(=O)CC[C@H](NC(=O)CCCCCCCCCCCCCCCCCCC(=O)O)C(=O)O)C(=O)N[C@@H](CC(N)=O)C(=O)N[C@@H]([C@@H](C)O)C(=O)N[C@@H](C)C(=O)N[C@@H]([C@@H](C)O)C(=O)N1)[C@@H](C)O)C(=O)N1CCC[C@H]1C(=O)N[C@@H](CO)C(=O)N[C@@H](CO)C(=O)N[C@H](C(=O)N[C@@H](CC(N)=O)C(=O)N[C@H](C(=O)NCC(=O)N[C@@H](CO)C(=O)N[C@@H](Cc1c[nH]cn1)C(=O)N[C@H](C(=O)N[C@@H](Cc1ccc(O)cc1)C(N)=O)[C@@H](C)O)C(C)C)[C@@H](C)O` [Peptide 19] ({C20 diacid-γGlu}-GRCNTATCATQRLANFLRHSSPNFGAIPSSTNVGSHTY-NH2; disulfide 3-8): the solubility (kinetic) in data set [1] (setting [2]) is not below 200 µM; in data set [1] (setting [3]), not below 200 µM; in data set [1] (setting [4]), not below 200 µM; in data set [1] (setting [5]) it was 50 µM (≈ 224 µg/mL); in data set [1] (setting [6]), 68 µM (≈ 305 µg/mL); in data set [1] (setting [7]), not below 200 µM. Moreover, the solubility (kinetic) in data set [1] (setting [8]) is not below 200 µM. At rAMY3R, the “rAMY3R pIC50” value was found to be 9.69. Further, the “ratio rCTR/rAMY3R” value at rAMY3R turned out to be 84. Besides, the “hAMY3R pEC50” value at hAMY3R (luciferase (human receptor assay), Tables S12 and S14) came to 9.65. Besides, the “ratio hCTR/hAMY3R” value on hAMY3R is on record as 6.
For the compound `CC[C@H](C)[C@H](NC(=O)[C@H](C)NC(=O)CNC(=O)[C@H](Cc1ccccc1)NC(=O)[C@H](CC(N)=O)NC(=O)[C@@H]1CCCN1C(=O)[C@H](CO)NC(=O)[C@H](CO)NC(=O)[C@H](Cc1c[nH]cn1)NC(=O)[C@H](CCCNC(=N)N)NC(=O)[C@H](CC(C)C)NC(=O)[C@H](Cc1ccccc1)NC(=O)[C@H](CC(N)=O)NC(=O)[C@H](C)NC(=O)[C@H](CC(C)C)NC(=O)[C@H](CCCNC(=N)N)NC(=O)[C@H](CCC(N)=O)NC(=O)[C@@H](NC(=O)[C@H](C)NC(=O)[C@@H]1CSSC[C@H](NC(=O)[C@H](CCCCN)NC(=O)CC[C@H](NC(=O)CCCCCCCCCCCCCCCCCCC(=O)O)C(=O)O)C(=O)N[C@@H](CC(N)=O)C(=O)N[C@@H]([C@@H](C)O)C(=O)N[C@@H](C)C(=O)N[C@@H]([C@@H](C)O)C(=O)N1)[C@@H](C)O)C(=O)N1CCC[C@H]1C(=O)N[C@@H](CO)C(=O)N[C@@H](CO)C(=O)N[C@H](C(=O)N[C@@H](CC(N)=O)C(=O)N[C@H](C(=O)NCC(=O)N[C@@H](CO)C(=O)N[C@@H](CCCCN)C(=O)N[C@H](C(=O)N[C@@H](Cc1ccc(O)cc1)C(N)=O)[C@@H](C)O)C(C)C)[C@@H](C)O` [Peptide 13], the solubility (kinetic) in data set [1] (setting [2]), in data set [1] (setting [3]), in data set [1] (setting [4]), in data set [1] (setting [5]), in data set [1] (setting [6]) and in data set [1] (setting [7]) was not below 200 µM each time. Besides, in data set [1] (setting [8]), the kinetic solubility is not below 200 µM. Moreover, the “rAMY3R pIC50” value on rAMY3R came out at 8.77. In addition, the “ratio rCTR/rAMY3R” value at rAMY3R worked out at 52. For the same compound, the EC50 at hAMY3R (luciferase (human receptor assay), Tables S12 and S14, read-out: hAMY3R pEC50 (converted)) was 309 pM; at hAMY3R (luciferase (human receptor assay), BHK cells stably expressing hCTR+RAMP3 and CRE-luciferase, 3 h, 37 °C, 10% FBS, read-out: hAMY3R EC50), 310 pM. In addition, the “ratio hCTR/hAMY3R” value at hAMY3R came out at 8.4.
